Results published in publication PMC6108835, “Target-Based Discovery of an Inhibitor of the Regulatory Phosphatase PPP1R15B” (Cell, 2018).

Tests used:
[1] = tested on: wild-type mice; assay: Morris water maze; format: in vivo, mouse; details: 2 mg/kg for 2 weeks
Method: (§1) Morris water maze and the following fear conditioning were performed on C57BL/6J wild-type males aged 2.5 months. Mice were treatment- and test-naive before the treatment started. Treatment with Raphin1 started two weeks before and was continued during the behavioral tests.
The water maze consisted of a white circular tank (1.50 m diameter) filled with opaque water adjusted to 21 ± 1°C. For the hidden platform task, the escape platform (10 cm diameter) was positioned 1 cm below water surface in the center of one of the pool quadrants. The walls surrounding the water maze were hung with posters and flags, which served as visual cues and were visible during all stages of 5 trainings and testing. Movement of the mice within the pool was tracked and analyzed with a computerized tracking system (ViewPoint, France). During training mice were required to locate a submerged hidden platform by using only extra-maze cues. Each mouse received five blocks of training trials over five consecutive days. […] Spatial learning performance was assessed during a probe trial 1 hr after the last session of training, and for which the target platform was removed from the pool. To evaluate the performance during training trials the latency and distance traveled to find the hidden platform were measured. […]

[2] = tested on: wild-type mice; assay: Fear conditioning; format: in vivo, mouse; details: 2 mg/kg for 3 weeks
Method: as §1
Testing was performed in polymodal operant chambers (Coulbourn Instruments, Allentown, PA, USA). Each chamber (18.5 × 18 × 21.5 cm) consisted of aluminum side walls and Plexiglas rear and front (the door) walls. A loudspeaker and a bright light constituted the sources of the cues during conditioning and cue-testing. The general activity of animals was recorded through the infrared cell placed at the ceiling of the chambers and was directly recorded using the Graphic State software (Coulbourn). For conditioning, mice were allowed to acclimate for 4 min, then a light/tone (10 kHz) – Conditioned Stimulus (CS) was presented for 20 s and co-terminated by a mild (1 s, 0.4 mA) footshock – an aversive Unconditioned Stimulus (US). Mice were returned to their home cages 2 min later. Testing was performed 24 hr following conditioning session. Testing for the context was performed in the morning. […] For both context and cue testing the percentage of time spent in the immobile position (% Freezing) was scored as an indicator of fear memory.

[3] = target: T1, R15B-PP1c (Homo sapiens, UniProt Q5SWA1); assay: Selective holophosphatase activity assay, eIF2α dephosphorylation by R15B-PP1c; format: biochemical; details: Raphin1 100 μM, 30°C, 16 hr
T1 construct: cDNAs encoding amino acids 325-636 of R15A and 340-698 of R15B were cloned into pMAL-c5x; made in house; host or cells: E. coli (R15 and eIF2α: BL21-Gold (DE3) pLysS; PP1: BL21/pGro7)
T1 sequence (Q5SWA1 340-698): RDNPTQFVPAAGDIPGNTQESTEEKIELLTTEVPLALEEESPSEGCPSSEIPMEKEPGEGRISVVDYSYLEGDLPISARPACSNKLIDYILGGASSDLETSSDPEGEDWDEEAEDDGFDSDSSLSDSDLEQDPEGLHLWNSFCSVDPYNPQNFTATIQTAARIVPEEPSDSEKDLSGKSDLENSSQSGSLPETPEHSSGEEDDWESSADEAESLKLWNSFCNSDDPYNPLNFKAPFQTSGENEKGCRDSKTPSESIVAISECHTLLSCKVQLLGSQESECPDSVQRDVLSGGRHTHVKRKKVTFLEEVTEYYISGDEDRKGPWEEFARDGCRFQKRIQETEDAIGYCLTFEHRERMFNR
T1 sequence (P62136 7-330 partner limits assumed): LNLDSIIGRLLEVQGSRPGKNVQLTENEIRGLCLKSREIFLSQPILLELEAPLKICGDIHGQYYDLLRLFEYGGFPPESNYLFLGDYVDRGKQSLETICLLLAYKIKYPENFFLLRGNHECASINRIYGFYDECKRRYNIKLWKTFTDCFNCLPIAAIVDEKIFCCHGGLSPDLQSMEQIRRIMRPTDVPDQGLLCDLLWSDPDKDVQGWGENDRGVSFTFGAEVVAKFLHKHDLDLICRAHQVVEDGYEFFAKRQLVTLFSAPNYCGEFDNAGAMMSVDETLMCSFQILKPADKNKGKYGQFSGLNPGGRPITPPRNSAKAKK
Method: The assay was performed as previously described ([Carrara et al., 2017]). Dephosphorylation experiments were carried out in dephosphorylation buffer (50 mM Tris pH 7.4, 1.5 mM EGTA pH 8.0, 2 mM MnCl2), and all proteins were diluted to the appropriate concentration in dephosphorylation buffer. PP1c was diluted to 10 nM, R15s were diluted to 50 nM and P-eIF2α was diluted to 1 μM. Proteins were mixed as appropriate, and Raphin1 at 100 μM or DMSO vehicle control were added. Reactions were incubated at 30°C for 16 hr. 4% SDS-Laemmli sample buffer was added to stop the reactions. Samples were loaded on 4%–12% NuPAGE Bis-Tris gels (ThermoFisher Scientific), diluted 1-fold, and analyzed by immunoblotting using anti-Phospho-eIF2α (Ser51) (Cell Signaling (#9721); […]) and total anti-eIF2α (AbCam (#ab26197); 1:1,000) antibodies.

[4] = tested on: R15b −/− cells; assay: eIF2α phosphorylation and translation rates in R15b −/− MEF cells; format: cell-based, mouse; details: 10 μM
Method: HeLa or MEF cells (90,000 cells/mL) were plated in 12-well plates (1 mL/well). The following day cells were treated as indicated; the medium was removed, fresh medium containing compound added and incubated at 37°C for the times indicated. The time course was performed in reverse order to facilitate collecting all samples at the same time. At the end of treatment cells were washed two times with ice-cold PBS and lysed in 150 μL Laemmli Buffer. Lysates were transferred to 1.5 mL eppendorf tubes, boiled at 95°C for 5 min, sonicated and resolved on Bolt SDS-PAGE 4%–12% Bis-Tris gels (ThermoFisher Scientific). Proteins were transferred to the nitrocellulose membrane using the iBlot 2 system (ThermoFisher Scientific). Membrane was blocked in 5% skimmed milk for 30 min and then probed with primary antibodies followed by incubation with the appropriate horseradish peroxidase-conjugated secondary antibodies (Promega). Proteins were visualized using ECL Prime (GE Healthcare) and imaged in the Chemi-Smart 5000 (Vilber-Lourmat, France) or ChemiDoc Touch (BioRad). Bands were quantified using ImageJ (NIH, USA). […]
HeLa or MEF cells (90,000 cells/mL) were plated in 12-well plates (1 mL/well). […] The gels were then exposed to a Storage Phosphor Screen (GE Healthcare) and analyzed by phosphorimaging using a Typhoon Imager Scanner (GE Healthcare).

[H]/N=C(\N)NN=Cc1cccc(Cl)c1Cl [Raphin1, (E)-2-(2,3-dichlorobenzylidene)hydrazine-1-carboximidamide]
Adverse effects on memory, Morris water maze [1]: no adverse effects
Adverse effects on memory, fear-conditioning paradigm [2]: no adverse effects
Dephosphorylation of eIF2α by R15B-PP1c [3]: inhibited
Measurable effects on eIF2α phosphorylation and translation [4]: abolished
